Source: ChEMBL document CHEMBL3352046, “Serendipitous discovery of 2-((phenylsulfonyl)methyl)-thieno[3,2-d]pyrimidine derivatives as novel HIV-1 replication inhibitors” (Bioorg Med Chem Lett, 2014)

What was measured:
[1] = Cytotoxicity against human CEmx174 cells expressing GFP after 5 days by resazurin assay; assay type: cell-based
[2] = test system: Human immunodeficiency virus 1; test: Antiviral activity against HIV-1 LAI infected in human CEMx174-LTR-GFP CG8 cells assessed as inhibition of viral replication after 5 days; assay type: functional, organism-based; settings: Human immunodeficiency virus 1, LAI, 120 h
[3] = target: T1, Cytochrome P450 1A2 (Homo sapiens, UniProt P05177); test: Inhibition of recombinant CYP1A2 (unknown origin) after 10 mins by LC-MS/MS analysis; assay type: ADME
T1 sequence (P05177 whole entry): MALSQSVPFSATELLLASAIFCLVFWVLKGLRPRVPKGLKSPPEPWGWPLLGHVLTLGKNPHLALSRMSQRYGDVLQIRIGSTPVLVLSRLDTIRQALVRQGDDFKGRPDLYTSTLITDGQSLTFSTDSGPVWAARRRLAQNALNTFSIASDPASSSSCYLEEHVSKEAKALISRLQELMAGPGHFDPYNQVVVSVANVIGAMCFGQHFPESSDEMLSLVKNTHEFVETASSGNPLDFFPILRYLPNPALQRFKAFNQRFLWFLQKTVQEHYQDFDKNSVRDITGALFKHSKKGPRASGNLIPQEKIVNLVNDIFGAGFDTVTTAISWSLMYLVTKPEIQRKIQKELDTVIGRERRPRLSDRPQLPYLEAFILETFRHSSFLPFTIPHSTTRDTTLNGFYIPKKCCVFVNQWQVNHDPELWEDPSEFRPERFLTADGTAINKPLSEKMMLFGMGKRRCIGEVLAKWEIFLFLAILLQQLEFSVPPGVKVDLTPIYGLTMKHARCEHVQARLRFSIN

[4] = target: Cytochrome P450 2C9 (Homo sapiens, UniProt P11712); test: Inhibition of recombinant CYP2C9 (unknown origin) after 10 mins by LC-MS/MS analysis; assay type: ADME
[5] = target: Cytochrome P450 2D6 (Homo sapiens, UniProt P10635); test: Inhibition of recombinant CYP2D6 (unknown origin) after 20 mins by LC-MS/MS analysis; assay type: ADME
[6] = target: Cytochrome P450 3A4 (Homo sapiens, UniProt P08684); test: Inhibition of recombinant CYP3A4 (unknown origin) after 3 mins by LC-MS/MS analysis; assay type: ADME
[7] = Therapeutic index, ratio of CC50 for human CEmx174 cells expressing GFP to IC50 for HIV-1 LAI infected in human CEMx174-LTR-GFP CG8 cells; settings: read-out: Ratio CC50/EC50

Cytochrome P450 2C9, sequence (P11712 whole entry): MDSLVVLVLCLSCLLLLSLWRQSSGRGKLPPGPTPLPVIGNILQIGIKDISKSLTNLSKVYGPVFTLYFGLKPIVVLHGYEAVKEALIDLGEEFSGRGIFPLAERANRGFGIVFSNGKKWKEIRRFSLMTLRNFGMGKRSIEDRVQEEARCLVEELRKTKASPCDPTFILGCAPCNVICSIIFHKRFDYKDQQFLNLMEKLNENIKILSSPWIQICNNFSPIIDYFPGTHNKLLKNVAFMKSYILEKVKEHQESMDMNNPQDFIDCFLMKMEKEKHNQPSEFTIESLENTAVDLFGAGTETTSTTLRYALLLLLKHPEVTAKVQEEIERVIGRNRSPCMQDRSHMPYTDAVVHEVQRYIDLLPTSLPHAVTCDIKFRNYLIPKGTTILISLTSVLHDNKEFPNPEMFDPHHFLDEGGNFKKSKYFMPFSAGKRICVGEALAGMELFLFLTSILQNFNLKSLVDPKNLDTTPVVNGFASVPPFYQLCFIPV
Cytochrome P450 3A4, sequence (P08684 whole entry): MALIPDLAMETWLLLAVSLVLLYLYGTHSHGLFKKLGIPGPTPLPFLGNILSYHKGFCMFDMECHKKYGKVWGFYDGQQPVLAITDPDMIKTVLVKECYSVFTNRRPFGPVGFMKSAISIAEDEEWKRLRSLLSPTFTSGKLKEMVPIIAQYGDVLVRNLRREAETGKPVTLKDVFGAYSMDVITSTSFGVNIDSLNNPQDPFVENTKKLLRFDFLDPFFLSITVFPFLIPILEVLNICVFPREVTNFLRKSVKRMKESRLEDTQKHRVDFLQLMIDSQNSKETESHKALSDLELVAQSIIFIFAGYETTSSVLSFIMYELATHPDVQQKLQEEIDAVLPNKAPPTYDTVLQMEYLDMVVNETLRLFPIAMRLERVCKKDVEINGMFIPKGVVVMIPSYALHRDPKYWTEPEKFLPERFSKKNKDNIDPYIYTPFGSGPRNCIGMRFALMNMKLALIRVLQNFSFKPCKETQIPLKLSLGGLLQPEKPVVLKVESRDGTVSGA
Cytochrome P450 2D6, sequence (P10635 whole entry): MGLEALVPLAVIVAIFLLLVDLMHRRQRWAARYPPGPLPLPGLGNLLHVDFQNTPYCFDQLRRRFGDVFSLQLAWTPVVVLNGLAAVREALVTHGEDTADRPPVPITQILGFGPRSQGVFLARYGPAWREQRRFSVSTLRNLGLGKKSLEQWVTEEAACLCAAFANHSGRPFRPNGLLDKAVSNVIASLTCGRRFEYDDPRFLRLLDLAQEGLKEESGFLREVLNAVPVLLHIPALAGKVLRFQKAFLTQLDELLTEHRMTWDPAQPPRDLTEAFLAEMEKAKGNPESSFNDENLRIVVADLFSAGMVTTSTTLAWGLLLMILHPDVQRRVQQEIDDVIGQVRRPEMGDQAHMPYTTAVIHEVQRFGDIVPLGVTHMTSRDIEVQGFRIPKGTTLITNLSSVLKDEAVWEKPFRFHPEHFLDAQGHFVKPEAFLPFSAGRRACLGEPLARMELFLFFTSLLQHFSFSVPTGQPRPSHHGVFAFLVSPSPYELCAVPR

Compound	CC50 at 120 h [1] [µM]	EC50 [2] [nM]	IC50 [3] [µM]	IC50 [4] [µM]	IC50 [5] [µM]	IC50 [6] [µM]	selectivity ratio [7]
CCC1=C(C(=O)OCC2CCCCC2)C(c2cccc(O)c2)NC(=O)N1 (stereo not drawn)	> 10	530	–	–	–	–	–
c1ccc(-c2cc(CNc3nncc(-c4cccc5ccccc45)n3)n[nH]2)cc1	> 10	270	–	–	–	–	–
COc1ccc(-c2nc(CS(=O)(=O)c3cccc(Cl)c3)nc3ccsc23)cn1	> 10	25	> 10	5.25	> 10	6.71	> 400
O=S(=O)(Cc1nc(-c2cccnc2)c2sccc2n1)c1cccc(Cl)c1	> 50	485	–	–	–	–	> 103
O=S(=O)(Cc1nc(-c2ccncc2)c2sccc2n1)c1cccc(Cl)c1	> 50	189	–	–	–	–	> 264
O=S(=O)(Cc1nc(-c2ccnc(Cl)c2)c2sccc2n1)c1cccc(Cl)c1	63	270	–	–	–	–	233
O=S(=O)(Cc1nc(-c2ccc(Cl)nc2)c2sccc2n1)c1cccc(Cl)c1	70	3200	–	–	–	–	21
O=S(=O)(Cc1nc(-c2ccc(F)nc2)c2sccc2n1)c1cccc(Cl)c1	40	6000	–	–	–	–	6.6
O=c1ccc(-c2nc(CS(=O)(=O)c3cccc(Cl)c3)nc3ccsc23)c[nH]1	> 50	915	–	–	–	–	> 54
COc1ccc(-c2nc(CS(=O)(=O)c3cccc(Cl)c3)nc3ccsc23)cc1	69	103	–	–	–	–	669
O=S(=O)(Cc1nc(-c2cccs2)c2sccc2n1)c1cccc(Cl)c1	> 50	140	–	–	–	–	> 357
O=S(=O)(Cc1nc(-c2ccoc2)c2sccc2n1)c1cccc(Cl)c1	> 50	775	–	–	–	–	> 64
O=S(=O)(Cc1nc(N2CCOCC2)c2sccc2n1)c1cccc(Cl)c1	> 50	590	–	–	–	–	> 84
COc1ccc(Nc2nc(CS(=O)(=O)c3cccc(Cl)c3)nc3ccsc23)cc1	60	3200	–	–	–	–	18.8
COc1ccc(Oc2nc(CS(=O)(=O)c3cccc(Cl)c3)nc3ccsc23)cc1	> 50	831	–	–	–	–	> 60
COc1ccc(-c2nc(S(=O)(=O)c3cccc(Cl)c3)nc3ccsc23)cn1	> 50	322	–	–	–	–	> 155
COc1ccc(-c2nc(CCS(=O)(=O)c3cccc(Cl)c3)nc3ccsc23)cn1	> 50	5400	–	–	–	–	> 9.2
COc1ccc(-c2nc(C[S+]([O-])c3cccc(Cl)c3)nc3ccsc23)cn1 (stereo not drawn)	> 50	532	–	–	–	–	> 93
COc1ccc(-c2nc(CSc3cccc(Cl)c3)nc3ccsc23)cn1	> 10	14	–	–	–	–	> 714
COc1ccc(-c2nc(/C=C\c3cccc(Cl)c3)nc3ccsc23)cn1	53	8000	–	–	–	–	6.6

Compound	CC50 at 120 h [1] [µM]	EC50 [2] [nM]	IC50 [3] [µM]	IC50 [4] [µM]	IC50 [5] [µM]	IC50 [6] [µM]	selectivity ratio [7]
COc1ccc(-c2nc(CCc3cccc(Cl)c3)nc3ccsc23)cn1	> 50	1600	–	–	–	–	> 31
COc1ccc(-c2nc(CC(=O)c3cccc(Cl)c3)nc3ccsc23)cn1	30	200	–	–	–	–	150
COc1ccc(-c2nc(CC(O)c3cccc(Cl)c3)nc3ccsc23)cn1 (stereo not drawn)	31	9000	–	–	–	–	3.4
COc1ccc(-c2nc(CNc3cccc(Cl)c3)nc3ccsc23)cn1	> 50	672	–	–	–	–	> 74
COc1ccc(-c2nc(COc3cccc(Cl)c3)nc3ccsc23)cn1	> 50	384	–	–	–	–	> 130
COc1ccc(-c2nc(C3(S(=O)(=O)c4cccc(Cl)c4)CC3)nc3ccsc23)cn1	> 50	69	–	–	–	–	> 724
COc1ccc(-c2nc(C(C)S(=O)(=O)c3cccc(Cl)c3)nc3ccsc23)cn1 (stereo not drawn)	> 50	84	–	–	–	–	> 595
COc1ccc(-c2nc(C(F)S(=O)(=O)c3cccc(Cl)c3)nc3ccsc23)cn1 (stereo not drawn)	> 50	87	–	–	–	–	> 574
COc1ccc(-c2nc(C(F)(F)S(=O)(=O)c3cccc(Cl)c3)nc3ccsc23)cn1	> 50	237	–	–	–	–	> 210
COc1ccc(-c2nc(C(C)(C)S(=O)(=O)c3cccc(Cl)c3)nc3ccsc23)cn1	> 50	2300	–	–	–	–	> 21
COc1ccc(-c2nc(CSc3cc(Cl)ccc3Cl)nc3ccsc23)cn1	> 50	728	–	–	–	–	> 68
COc1ccc(-c2nc(CSc3cccc(Cl)c3Cl)nc3ccsc23)cn1	> 50	5000	–	–	–	–	> 10
COc1ccc(-c2nc(CSc3cccc(C(F)(F)F)c3)nc3ccsc23)cn1	> 50	262	–	–	–	–	> 190
COc1ccc(-c2nc(CSc3cccc(Br)c3)nc3ccsc23)cn1	> 50	158	–	–	–	–	> 316
COc1ccc(-c2nc(CSc3ccc(F)cc3F)nc3ccsc23)cn1	> 50	5000	–	–	–	–	> 10
COc1ccc(-c2nc(CSc3cc(C)cc(C)c3)nc3ccsc23)cn1	> 50	774	–	–	–	–	> 64
COc1ccc(-c2nc(CSc3ccc(C(F)(F)F)cn3)nc3ccsc23)cn1	> 50	18000	–	–	–	–	> 2.7
COc1ccc(-c2nc(CSCc3cccc(Cl)c3)nc3ccsc23)cn1	> 50	23000	–	–	–	–	> 2.2
Cc1ccnc2c1NC(=O)c1cccnc1N2C1CC1 [NEVIRAPINE]	> 10	–	–	–	–	–	> 66
